Measurements as given in patent US10556870B2, “Imidazole compounds as EAAT3 inhibitors” (Hoffmann-La Roche Inc., priority 2016, dated 2020).

Assays:
human EAAT3 = molecular target: T1, human EAAT3 (Homo sapiens, UniProt P43005); assay: FLIPR Membrane Potential (FMP) assay, antagonist potency at human EAAT3 with L-glutamate as agonist; type: cell-based; settings: HEK-293 cells stably expressing human EAAT3; L-glutamate at 80% of maximum response; antagonist applied 15 min before agonist; Kb by Cheng-Prusoff equation
T1 construct: expressed in transfected cells
T1 sequence (P43005 1-524): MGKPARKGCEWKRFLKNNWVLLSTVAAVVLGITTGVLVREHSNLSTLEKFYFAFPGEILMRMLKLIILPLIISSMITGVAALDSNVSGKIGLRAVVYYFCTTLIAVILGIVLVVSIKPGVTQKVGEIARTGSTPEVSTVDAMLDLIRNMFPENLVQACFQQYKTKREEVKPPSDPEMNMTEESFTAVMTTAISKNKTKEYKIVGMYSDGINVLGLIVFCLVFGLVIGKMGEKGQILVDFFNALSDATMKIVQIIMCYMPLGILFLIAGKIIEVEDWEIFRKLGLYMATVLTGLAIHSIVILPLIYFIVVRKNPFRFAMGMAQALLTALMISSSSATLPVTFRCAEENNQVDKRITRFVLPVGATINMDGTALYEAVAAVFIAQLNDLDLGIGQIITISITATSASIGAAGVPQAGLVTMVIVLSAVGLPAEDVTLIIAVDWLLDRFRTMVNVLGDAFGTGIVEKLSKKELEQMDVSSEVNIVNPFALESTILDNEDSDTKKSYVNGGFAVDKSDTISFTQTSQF
Protocol: The FLIPR Membrane Potential (FMP) Assay
HEK-293 cells stably expressing human EAAT3 were seeded at 55 000 cells/well in growth medium (DMEM glutamate free (Invitrogen 11960-044), 1% Pen Strep (10 ml/l GIBCO BRL No 15140-023), 10% FCS non dialysed heat inactivated, 5 mg/l puromycin) in poly-D-lysine treated 96-well black microtiter plates with clear-bottom. After 24 h, the growth medium was removed and 100 μl/well of Krebs buffer (140 mM NaCl, 4.7 mM KCl, 2.5 mM CaCl2, 1.2 mM MgCl2, 11 mM HEPES, 10 mM D-glucose, pH=7.4) added. The cells were then loaded by adding 100 μl/well FMP assay dye (FLIPR Membrane Potential assay reagent, Molecular Devices). The 96-well plates were then incubated at 37° C. for 1 h. The depolarization of the cells will cause more dye to enter in the cells, where it will bind to intracellular proteins and lipids and cause an increase in the fluorescence signal. Antagonist potency at human EAAT3 was determined by using L-glutamate as agonist at a concentration which gives 80% of the maximum response. The antagonists were applied 15 min before the application of the agonist L-glutamate. The assays were performed at room temperature and measurements done by using a Fluorometric Imaging Plate Reader (FLIPR, Molecular Devices) and filter #2. Responses were measured as peak increase in fluorescence minus basal (i.e. fluorescence without addition of L-glutamate). Kb was determined using the Cheng-Prusoff equation Kb=IC50/[1+(A/EC50)], where IC50 is the concentration of the antagonist producing 50% inhibition, A is the concentration of the agonist against which the IC50 is being determined (at EC50) and EC50 is the concentration of the agonist producing […].

| Kb (human EAAT3) | melting point | SMILES |
| --- | --- | --- |
| 190 nM | 89 °C | CCn1cncc1-c1cc(C(=O)NC(C)(C)C)cc(-c2ccc(Cl)cc2)c1 [Example 8, N-tert-Butyl-3-(4-chlorophenyl)-5-(3-ethyl-imidazol-4-yl)-benzamide] |
| 270 nM | 88 °C | CC(C)n1cncc1-c1cc(C(=O)NC(C)(C)C)cc(-c2ccc(C(F)(F)F)cc2)c1 [Example 2, N-tert-Butyl-3-(3-propan-2-yl-imidazol-4-yl)-5-[4-(trifluoromethyl)-phenyl]-benzamide] |
| 210 nM | 96 °C | CC(C)(C)NC(=O)c1cc(-c2ccc(F)cc2)cc(-c2cncn2C(C)(C)C)c1 [Example 11, N-tert-Butyl-3-(3-tert-butyl-imidazol-4-yl)-5-(4-fluorophenyl)-benzamide] |
| 140 nM | 97.5 °C | CC(C)n1cncc1-c1cc(C(=O)NC(C)(C)C)cc(-c2ccc(Cl)cc2)c1 [Example 3, N-tert-Butyl-3-(4-chlorophenyl)-5-(3-propan-2-yl-imidazol-4-yl)-benzamide] |
| 270 nM | 62 °C | Cn1cncc1-c1cc(C(=O)NC(C)(C)C)cc(-c2ccc(F)cc2)c1 [Example 6, N-tert-Butyl-3-(4-fluorophenyl)-5-(3-methyl-imidazol-4-yl)-benzamide] |
| 360 nM | 78.5 °C | Cn1cncc1-c1cc(C(=O)NC(C)(C)C)cc(-c2ccc(C(F)(F)F)cc2)c1 [Example 5, N-tert-Butyl-3-(3-methyl-imidazol-4-yl)-5-[4-(trifluoromethyl)-phenyl]-benzamide] |

Second part, the compound before the results:

| SMILES | Kb (human EAAT3) | melting point |
| --- | --- | --- |
| CCn1cncc1-c1cc(C(=O)NC(C)(C)C)cc(-c2ccc(F)cc2)c1 [Example 9, N-tert-Butyl-3-(3-ethyl-imidazol-4-yl)-5-(4-fluorophenyl)-benzamide] | 160 nM | 79 °C |
| CC(C)(C)NC(=O)c1cc(-c2ccc(Cl)cc2)cc(-c2cncn2C(C)(C)C)c1 [Example 7, N-tert-Butyl-3-(3-tert-butyl-imidazol-4-yl)-5-(4-chlorophenyl)-benzamide] | 200 nM | 92 °C |
| Cn1cncc1-c1cc(C(=O)NC(C)(C)C)cc(-c2ccc(Cl)cc2)c1 [Example 4, N-tert-Butyl-3-(4-chlorophenyl)-5-(3-methyl-imidazol-4-yl)-benzamide] | 290 nM | 79.5 °C |
| CC(C)(C)NC(=O)c1cc(-c2ccc(C(F)(F)F)cc2)cc(-c2cncn2C(C)(C)C)c1 [Example 12, N-tert-Butyl-3-(3-tert-butyl-imidazol-4-yl)-5-[4-(trifluoromethyl)-phenyl]-benzamide] | 270 nM | 87 °C |
| CCn1cncc1-c1cc(C(=O)NC(C)(C)C)cc(-c2ccc(C(F)(F)F)cc2)c1 [Example 10, N-tert-Butyl-3-(3-ethyl-imidazol-4-yl)-5-[4-(trifluoromethyl)-phenyl]-benzamide] | 230 nM | 87 °C |
| CC(C)n1cncc1-c1cc(C(=O)NC(C)(C)C)cc(-c2ccc(F)cc2)c1 [Example 1, N-tert-Butyl-3-(4-fluorophenyl)-5-(3-propan-2-yl-imidazol-4-yl)-benzamide] | 160 nM | 85 °C |
